Where two headings read alike, the source gives them in different places.
Tests used:
[1] = molecular target: T1, human thyroid receptor beta ligand-binding domain (LBD) (Homo sapiens, UniProt P10828); assay: TR-FRET thyroid receptor beta coactivator assay (THR biochemical assay, Assay 1); conditions: for EC50: THR-beta, TR-FRET coactivator assay, read-out: Activity category Assay 1 (EC50, THR-beta agonist); for Emax: read-out: Activity category Assay 1 THRβ (Emax)
T1 construct: purchased Invitrogen
T1 sequence (P10828 217-461 limits assumed): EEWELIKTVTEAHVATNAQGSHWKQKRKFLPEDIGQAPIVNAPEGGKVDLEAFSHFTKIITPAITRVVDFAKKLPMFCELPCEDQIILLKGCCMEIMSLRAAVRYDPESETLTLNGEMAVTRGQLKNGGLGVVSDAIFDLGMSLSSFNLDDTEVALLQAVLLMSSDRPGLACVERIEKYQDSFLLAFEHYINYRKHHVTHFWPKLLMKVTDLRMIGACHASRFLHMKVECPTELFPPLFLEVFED
Source text: (§1) The TR-FRET thyroid receptor beta coactivator assay was used with slight, optimized modifications of the manufacturer's protocol (Invitrogen). The assay uses a terbium-labeled anti-GST antibody, a glutathione-S-transferase (GST) tagged human thyroid receptor, beta or alpha, ligand-binding domain (LBD), and a fluorescein labeled SRC2-2 coactivator peptide. […] The energy transfer is detected as an increase in the fluorescence emission of the fluorescein acceptor, and a decrease in the fluorescence emission of the terbium donor. The assay is performed in a 384-well black plate in a final volume of 20 μL. Serial dilution of various test agonists was performed in DMSO (1% final DMSO concentration) and added to the test plate. Thyroid receptor beta LBD is added to the plate at a final concentration of 1 nM, followed by the mixture of the fluorescein labeled SRC2-2 coactivator peptide, and the terbium-labeled anti-GST antibody at final concentrations of 200 nM and 2 nM respectively. The assay is incubated for 1 hr at rt protected from light.

[2] = molecular target: T2, human thyroid receptor alpha ligand-binding domain (LBD) (Homo sapiens, UniProt P10827); assay: TR-FRET thyroid receptor alpha coactivator assay (THR biochemical assay, Assay 1); conditions: for EC50: Table 4, THR-alpha, read-out: Activity category Assay 1 (EC50, THR-alpha agonist activity); for Emax: read-out: Activity category Assay 1 THRα (Emax)
T2 construct: purchased Invitrogen
T2 sequence (P10827 163-410 isoform P10827-2 limits assumed, other chains not shown): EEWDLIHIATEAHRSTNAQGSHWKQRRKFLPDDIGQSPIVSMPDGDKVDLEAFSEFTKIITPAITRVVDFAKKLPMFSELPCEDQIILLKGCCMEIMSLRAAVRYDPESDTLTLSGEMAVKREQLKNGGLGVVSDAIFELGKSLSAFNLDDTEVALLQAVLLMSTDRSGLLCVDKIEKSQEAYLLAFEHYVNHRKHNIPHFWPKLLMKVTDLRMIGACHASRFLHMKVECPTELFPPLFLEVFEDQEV
Source text: as §1

| EC50 [1] [µM] | Emax ([1]; Table 5, Assay 1, THRβ) [%] | EC50 [2] [µM] | Emax ([2]; Table 5, THRα) [%] | Activity category Assay 1 THRβ (Emax) ([1]; Table 5, Assay 1, THRβ) | Activity category Assay 1 THRα (Emax) ([2]; Table 5, THRα) | SMILES | Emax [1] [%] |
| --- | --- | --- | --- | --- | --- | --- | --- |
| > 25 | < 50 | > 25 | < 50 | – | – | CCc1cccc(-c2cc(=O)[nH]nc2Oc2c(Cl)cc(-n3nc(N)c(=O)[nH]c3=O)cc2Cl)c1 [Compound 71-A, 6-Amino-2-(3,5-dichloro-4-((4-(3-ethylphenyl)-6-oxo-1,6-dihydropyridazin-3-yl)oxy)phenyl)-1,2,4-triazine-3,5(2H,4H)-dione] | – |
| > 25 | < 50 | > 25 | < 50 | – | – | Nc1nn(-c2cc(Cl)c(Oc3n[nH]c(=O)cc3-c3ccc4ccnn4c3)c(Cl)c2)c(=O)[nH]c1=O [Compound 123] | – |
| 0.05 to 0.25 | – | > 25 | – | C (Emax<50%) | C (Emax<50%) | Nc1nn(-c2cc(Cl)c(Oc3cc(C4Cc5ccccc54)c(=O)[nH]n3)c(Cl)c2)c(=O)[nH]c1=O (single isomer, unassigned) [Compound 166, 6-amino-2-(4-((5-(bicyclo[4.2.0]octa-1(6),2,4-trien-7-yl)-6-oxo-1,6-dihydropyridazin-3-yl)oxy)-3,5-dichlorophenyl)-1,2,4-triazine-3,5(2H,4H)-dione] | – |
| < 0.05 | < 50 | < 0.05 | < 50 | – | – | Cc1cc(-n2nc(C#N)c(=O)[nH]c2=O)cc(C)c1Cc1ccc2c(c1)C1(CCC1)C(=O)N2 [Compound 153, 2-(3,5-Dimethyl-4-((2′-oxospiro[cyclobutane-1,3′-indolin]-5′-yl)methyl)phenyl)-3,5-dioxo-2,3,4,5-tetrahydro-1,2,4-triazine-6-carbonitrile] | – |
| > 25 | < 50 | > 25 | < 50 | – | – | Nc1nn(-c2cc(Cl)c(Oc3cc(-c4ccn5cncc5c4)c(=O)[nH]n3)c(Cl)c2)c(=O)[nH]c1=O [Compound 126] | – |
| > 25 | < 50 | > 25 | < 50 | – | – | Cc1cccc(-c2cc(=O)[nH]nc2Oc2c(Cl)cc(-n3ncc(=O)[nH]c3=O)cc2Cl)c1 [Compound 140] | – |
| > 25 | < 50 | > 25 | < 50 | – | – | Nc1nn(-c2cc(Cl)c(Oc3n[nH]c(=O)cc3-c3ccc4nnccc4c3)c(Cl)c2)c(=O)[nH]c1=O [Compound 109] | – |
| > 25 | < 50 | > 25 | < 50 | – | – | Nc1nn(-c2cc(Cl)c(Oc3n[nH]c(=O)cc3-c3ccc4ccnnc4c3)c(Cl)c2)c(=O)[nH]c1=O [Compound 111] | – |
| < 0.05 | < 50 | 0.25 to 1 | < 50 | – | – | CC(C)[C@@H](C)c1cc(Oc2c(Cl)cc(-n3nc(N)c(=O)[nH]c3=O)cc2Cl)n[nH]c1=O [Compound 169] | – |
| 1 to 25 | < 50 | > 25 | < 50 | – | – | Nc1nn(-c2cc(Cl)c(Oc3n[nH]c(=O)cc3-c3ccn4nccc4c3)c(Cl)c2)c(=O)[nH]c1=O [Compound 125] | – |
| 0.25 to 1 | < 50 | 1 to 25 | < 50 | – | – | CC(C)c1cc(Oc2c(Cl)cc(-n3nc(C#N)c(=O)[nH]c3=O)c3c2CC3)n[nH]c1=O [Compound 78, 2-[4-Chloro-5-[(5-isopropyl-6-oxo-1H-pyridazin-3-yl)oxy]bicyclo[4.2.0]octa-1(6),2,4-trien-2-yl]-3,5-dioxo-4H-1,2,4-triazine-6-carbonitrile] | – |
| > 25 | < 50 | > 25 | < 50 | – | – | N#Cc1nn(-c2cc(Cl)c(Oc3ccc4[nH]cc(C(=O)N5CCc6ccccc6C5)c4c3)c(Cl)c2)c(=O)[nH]c1=O [Compound 22] | – |
| 1 to 25 | < 50 | > 25 | < 50 | – | – | CC(C)c1cc(Oc2c(Cl)cc(-n3nc(CS(C)(=O)=O)c(=O)[nH]c3=O)cc2Cl)n[nH]c1=O [Compound 34, 2-[3,5-dichloro-4-[(5-isopropyl-6-oxo-1H-pyridazin-3-yl)oxy]-phenyl]-6-(methanesulfonylmethyl)-4H-1,2,4-triazine-3,5-dione] | – |
| 0.05 to 0.25 | < 50 | > 25 | < 50 | – | – | CC(C)[C@H](C)c1cc(Oc2c(Cl)cc(-n3nc(N)c(=O)[nH]c3=O)cc2Cl)n[nH]c1=O [Compound 170] | – |
| 1 to 25 | < 50 | 1 to 25 | < 50 | – | – | CCn1nc(-c2cc(Cl)c(Oc3cc(C(C)C)c(=O)[nH]n3)c(Cl)c2)c(=O)[nH]c1=O [Compound 23] | – |
| > 25 | < 50 | 1 to 25 | < 50 | – | – | Nc1nn(-c2cc(Cl)c(Oc3cc(-c4cc5ccccn5n4)c(=O)[nH]n3)c(Cl)c2)c(=O)[nH]c1=O [Compound 130] | – |
| 1 to 25 | < 50 | 1 to 25 | < 50 | – | – | Nc1nn(-c2cc(Cl)c(Oc3cc(-c4ccc5ccnn5c4)c(=O)[nH]n3)c(Cl)c2)c(=O)[nH]c1=O [Compound 122] | – |
| > 25 | < 50 | > 25 | < 50 | – | – | Nc1nn(-c2cc(Cl)c(Oc3cc(-c4cnc5ccccc5c4)c(=O)[nH]n3)c(Cl)c2)c(=O)[nH]c1=O [Compound 132] | – |
| > 25 | < 50 | > 25 | < 50 | – | – | Nc1nn(-c2cc(Cl)c(Oc3n[nH]c(=O)cc3-c3cccc(F)c3)c(Cl)c2)c(=O)[nH]c1=O [Compound 69-A, 6-amino-2-(3,5-dichloro-4-((4-(3-fluorophenyl)-6-oxo-1,6-dihydropyridazin-3-yl)oxy)phenyl)-1,2,4-triazine-3,5(2H,4H)-dione] | – |
| > 25 | < 50 | > 25 | < 50 | – | – | CC(c1ccccc1)c1c[nH]c2ccc(Oc3c(Cl)cc(-n4nc(C#N)c(=O)[nH]c4=O)cc3Cl)cc12 (centres unmarked) [Compound 6, 2-(3,5-dichloro-4-[[3-(1-phenylethyl)-1H-indol-5-yl]oxy]phenyl)-3,5-dioxo-4H-1,2,4-triazine-6-carbonitrile] | – |
| 1 to 25 | < 50 | > 25 | < 50 | – | – | Cc1cncc(-c2cc(Oc3c(Cl)cc(-n4ncc(=O)[nH]c4=O)cc3Cl)n[nH]c2=O)c1 [Compound 137] | – |
| 0.25 to 1 | > 75 | 0.25 to 1 | < 50 | – | – | CSCc1nn(-c2cc(Cl)c(Oc3cc(C(C)C)c(=O)[nH]n3)c(Cl)c2)c(=O)[nH]c1=O [Compound 33, 2-[3,5-dichloro-4-[(5-isopropyl-6-oxo-1H-pyridazin-3-yl)oxy]phenyl]-6-[(methylsulfanyl)-methyl]-4H-1,2,4-triazine-3,5-dione] | – |
| > 25 | < 50 | > 25 | < 50 | – | – | Nc1nn(-c2cc(Cl)c(Oc3n[nH]c(=O)cc3-c3cccc(Cl)c3)c(Cl)c2)c(=O)[nH]c1=O [Compound 68-A, 6-amino-2-(3,5-dichloro-4-((4-(3-chlorophenyl)-6-oxo-1,6-dihydropyridazin-3-yl)oxy)phenyl)-1,2,4-triazine-3,5(2H,4H)-dione] | – |
| > 25 | < 50 | > 25 | < 50 | – | – | CC(c1ccccc1)c1cc(Oc2c(Cl)cc(-n3nc(N)c(=O)[nH]c3=O)cc2Cl)n[nH]c1=O (single isomer, unassigned) [Compound 163, 6-Amino-2-(3,5-dichloro-4-((6-oxo-5-(1-phenylethyl)-1,6-dihydropyridazin-3-yl)oxy)phenyl)-1,2,4-triazine-3,5(2H,4H)-dione] | – |
| 1 to 25 | < 50 | 1 to 25 | < 50 | – | – | Nc1nn(-c2cc(Cl)c(Oc3n[nH]c(=O)cc3-c3cc4ccccn4n3)c(Cl)c2)c(=O)[nH]c1=O [Compound 131] | – |

| SMILES | EC50 [1] [µM] | Emax ([1]; Table 5, Assay 1, THRβ) [%] | EC50 [2] [µM] | Emax ([2]; Table 5, THRα) [%] | Activity category Assay 1 THRβ (Emax) ([1]; Table 5, Assay 1, THRβ) | Activity category Assay 1 THRα (Emax) ([2]; Table 5, THRα) | Emax [1] [%] |
| --- | --- | --- | --- | --- | --- | --- | --- |
| N#Cc1nn(-c2cc(Cl)c(Oc3ccc4[nH]cc(-c5ccccc5)c4c3)c(Cl)c2)c(=O)[nH]c1=O [Compound 7, 2-[3,5-dichloro-4-[(3-phenyl-1H-indol-5-yl)oxy]phenyl]-3,5-dioxo-4H-1,2,4-triazine-6-carbonitrile] | > 25 | – | > 25 | < 50 | – | – | < 50 |
